Data taken from ChEMBL document CHEMBL1140509, “Rynaxypyr: a new insecticidal anthranilic diamide that acts as a potent and selective ryanodine receptor activator” (Bioorg Med Chem Lett, 2007).
pEC50: −log10 of the molar value. Converted amounts (≈) assume the structure as drawn. “And” between values parts separate entries of the source, which are not always exact repeats. Equal entries are not always repeated. The source made the active and inactive calls. The calls are words filed in the database; no cut-off is given here.

Columns and labels:
[1] = test system: Spodoptera frugiperda; assay: Insecticidal activity against Spodoptera frugiperda; assay type: functional
[2] = test system: Plutella xylostella; assay: Insecticidal activity against Plutella xylostella; assay type: functional
[3] = test system: Heliothis virescens; assay: Insecticidal activity against Heliothis virescens; assay type: functional
[4] = Activation of Heliothis virescens recombinant ryanodine receptor expressed in Sf9 cells assessed as induction of calcium mobilization
[5] = target: Ryanodine receptor (Drosophila melanogaster, UniProt Q24498); assay: Activation of Drosophila melanogaster ryanodine receptor in Sf9 cells assessed as induction of calcium mobilization; assay type: cell-based
[6] = Activation of ryanodine receptor in mouse C2C12 cells assessed as induction of calcium mobilization; assay type: cell-based
[7] = Activation of ryanodine receptor in rat PC12 cells assessed as induction of calcium mobilization; assay type: cell-based; details: PC-12
[8] = test system: PC-12; assay: Activation of ryanodine receptor in rat PC12 cells assessed as induction of calcium mobilization at 100 uM; assay type: cell-based
[9] = target: T1, Ryanodine receptor 2 (Homo sapiens, UniProt Q92736); assay: Activation of ryanodine receptor in human IMR32 cells assessed as induction of calcium mobilization; assay type: cell-based, IMR-32
T1 sequence (Q92736 whole entry): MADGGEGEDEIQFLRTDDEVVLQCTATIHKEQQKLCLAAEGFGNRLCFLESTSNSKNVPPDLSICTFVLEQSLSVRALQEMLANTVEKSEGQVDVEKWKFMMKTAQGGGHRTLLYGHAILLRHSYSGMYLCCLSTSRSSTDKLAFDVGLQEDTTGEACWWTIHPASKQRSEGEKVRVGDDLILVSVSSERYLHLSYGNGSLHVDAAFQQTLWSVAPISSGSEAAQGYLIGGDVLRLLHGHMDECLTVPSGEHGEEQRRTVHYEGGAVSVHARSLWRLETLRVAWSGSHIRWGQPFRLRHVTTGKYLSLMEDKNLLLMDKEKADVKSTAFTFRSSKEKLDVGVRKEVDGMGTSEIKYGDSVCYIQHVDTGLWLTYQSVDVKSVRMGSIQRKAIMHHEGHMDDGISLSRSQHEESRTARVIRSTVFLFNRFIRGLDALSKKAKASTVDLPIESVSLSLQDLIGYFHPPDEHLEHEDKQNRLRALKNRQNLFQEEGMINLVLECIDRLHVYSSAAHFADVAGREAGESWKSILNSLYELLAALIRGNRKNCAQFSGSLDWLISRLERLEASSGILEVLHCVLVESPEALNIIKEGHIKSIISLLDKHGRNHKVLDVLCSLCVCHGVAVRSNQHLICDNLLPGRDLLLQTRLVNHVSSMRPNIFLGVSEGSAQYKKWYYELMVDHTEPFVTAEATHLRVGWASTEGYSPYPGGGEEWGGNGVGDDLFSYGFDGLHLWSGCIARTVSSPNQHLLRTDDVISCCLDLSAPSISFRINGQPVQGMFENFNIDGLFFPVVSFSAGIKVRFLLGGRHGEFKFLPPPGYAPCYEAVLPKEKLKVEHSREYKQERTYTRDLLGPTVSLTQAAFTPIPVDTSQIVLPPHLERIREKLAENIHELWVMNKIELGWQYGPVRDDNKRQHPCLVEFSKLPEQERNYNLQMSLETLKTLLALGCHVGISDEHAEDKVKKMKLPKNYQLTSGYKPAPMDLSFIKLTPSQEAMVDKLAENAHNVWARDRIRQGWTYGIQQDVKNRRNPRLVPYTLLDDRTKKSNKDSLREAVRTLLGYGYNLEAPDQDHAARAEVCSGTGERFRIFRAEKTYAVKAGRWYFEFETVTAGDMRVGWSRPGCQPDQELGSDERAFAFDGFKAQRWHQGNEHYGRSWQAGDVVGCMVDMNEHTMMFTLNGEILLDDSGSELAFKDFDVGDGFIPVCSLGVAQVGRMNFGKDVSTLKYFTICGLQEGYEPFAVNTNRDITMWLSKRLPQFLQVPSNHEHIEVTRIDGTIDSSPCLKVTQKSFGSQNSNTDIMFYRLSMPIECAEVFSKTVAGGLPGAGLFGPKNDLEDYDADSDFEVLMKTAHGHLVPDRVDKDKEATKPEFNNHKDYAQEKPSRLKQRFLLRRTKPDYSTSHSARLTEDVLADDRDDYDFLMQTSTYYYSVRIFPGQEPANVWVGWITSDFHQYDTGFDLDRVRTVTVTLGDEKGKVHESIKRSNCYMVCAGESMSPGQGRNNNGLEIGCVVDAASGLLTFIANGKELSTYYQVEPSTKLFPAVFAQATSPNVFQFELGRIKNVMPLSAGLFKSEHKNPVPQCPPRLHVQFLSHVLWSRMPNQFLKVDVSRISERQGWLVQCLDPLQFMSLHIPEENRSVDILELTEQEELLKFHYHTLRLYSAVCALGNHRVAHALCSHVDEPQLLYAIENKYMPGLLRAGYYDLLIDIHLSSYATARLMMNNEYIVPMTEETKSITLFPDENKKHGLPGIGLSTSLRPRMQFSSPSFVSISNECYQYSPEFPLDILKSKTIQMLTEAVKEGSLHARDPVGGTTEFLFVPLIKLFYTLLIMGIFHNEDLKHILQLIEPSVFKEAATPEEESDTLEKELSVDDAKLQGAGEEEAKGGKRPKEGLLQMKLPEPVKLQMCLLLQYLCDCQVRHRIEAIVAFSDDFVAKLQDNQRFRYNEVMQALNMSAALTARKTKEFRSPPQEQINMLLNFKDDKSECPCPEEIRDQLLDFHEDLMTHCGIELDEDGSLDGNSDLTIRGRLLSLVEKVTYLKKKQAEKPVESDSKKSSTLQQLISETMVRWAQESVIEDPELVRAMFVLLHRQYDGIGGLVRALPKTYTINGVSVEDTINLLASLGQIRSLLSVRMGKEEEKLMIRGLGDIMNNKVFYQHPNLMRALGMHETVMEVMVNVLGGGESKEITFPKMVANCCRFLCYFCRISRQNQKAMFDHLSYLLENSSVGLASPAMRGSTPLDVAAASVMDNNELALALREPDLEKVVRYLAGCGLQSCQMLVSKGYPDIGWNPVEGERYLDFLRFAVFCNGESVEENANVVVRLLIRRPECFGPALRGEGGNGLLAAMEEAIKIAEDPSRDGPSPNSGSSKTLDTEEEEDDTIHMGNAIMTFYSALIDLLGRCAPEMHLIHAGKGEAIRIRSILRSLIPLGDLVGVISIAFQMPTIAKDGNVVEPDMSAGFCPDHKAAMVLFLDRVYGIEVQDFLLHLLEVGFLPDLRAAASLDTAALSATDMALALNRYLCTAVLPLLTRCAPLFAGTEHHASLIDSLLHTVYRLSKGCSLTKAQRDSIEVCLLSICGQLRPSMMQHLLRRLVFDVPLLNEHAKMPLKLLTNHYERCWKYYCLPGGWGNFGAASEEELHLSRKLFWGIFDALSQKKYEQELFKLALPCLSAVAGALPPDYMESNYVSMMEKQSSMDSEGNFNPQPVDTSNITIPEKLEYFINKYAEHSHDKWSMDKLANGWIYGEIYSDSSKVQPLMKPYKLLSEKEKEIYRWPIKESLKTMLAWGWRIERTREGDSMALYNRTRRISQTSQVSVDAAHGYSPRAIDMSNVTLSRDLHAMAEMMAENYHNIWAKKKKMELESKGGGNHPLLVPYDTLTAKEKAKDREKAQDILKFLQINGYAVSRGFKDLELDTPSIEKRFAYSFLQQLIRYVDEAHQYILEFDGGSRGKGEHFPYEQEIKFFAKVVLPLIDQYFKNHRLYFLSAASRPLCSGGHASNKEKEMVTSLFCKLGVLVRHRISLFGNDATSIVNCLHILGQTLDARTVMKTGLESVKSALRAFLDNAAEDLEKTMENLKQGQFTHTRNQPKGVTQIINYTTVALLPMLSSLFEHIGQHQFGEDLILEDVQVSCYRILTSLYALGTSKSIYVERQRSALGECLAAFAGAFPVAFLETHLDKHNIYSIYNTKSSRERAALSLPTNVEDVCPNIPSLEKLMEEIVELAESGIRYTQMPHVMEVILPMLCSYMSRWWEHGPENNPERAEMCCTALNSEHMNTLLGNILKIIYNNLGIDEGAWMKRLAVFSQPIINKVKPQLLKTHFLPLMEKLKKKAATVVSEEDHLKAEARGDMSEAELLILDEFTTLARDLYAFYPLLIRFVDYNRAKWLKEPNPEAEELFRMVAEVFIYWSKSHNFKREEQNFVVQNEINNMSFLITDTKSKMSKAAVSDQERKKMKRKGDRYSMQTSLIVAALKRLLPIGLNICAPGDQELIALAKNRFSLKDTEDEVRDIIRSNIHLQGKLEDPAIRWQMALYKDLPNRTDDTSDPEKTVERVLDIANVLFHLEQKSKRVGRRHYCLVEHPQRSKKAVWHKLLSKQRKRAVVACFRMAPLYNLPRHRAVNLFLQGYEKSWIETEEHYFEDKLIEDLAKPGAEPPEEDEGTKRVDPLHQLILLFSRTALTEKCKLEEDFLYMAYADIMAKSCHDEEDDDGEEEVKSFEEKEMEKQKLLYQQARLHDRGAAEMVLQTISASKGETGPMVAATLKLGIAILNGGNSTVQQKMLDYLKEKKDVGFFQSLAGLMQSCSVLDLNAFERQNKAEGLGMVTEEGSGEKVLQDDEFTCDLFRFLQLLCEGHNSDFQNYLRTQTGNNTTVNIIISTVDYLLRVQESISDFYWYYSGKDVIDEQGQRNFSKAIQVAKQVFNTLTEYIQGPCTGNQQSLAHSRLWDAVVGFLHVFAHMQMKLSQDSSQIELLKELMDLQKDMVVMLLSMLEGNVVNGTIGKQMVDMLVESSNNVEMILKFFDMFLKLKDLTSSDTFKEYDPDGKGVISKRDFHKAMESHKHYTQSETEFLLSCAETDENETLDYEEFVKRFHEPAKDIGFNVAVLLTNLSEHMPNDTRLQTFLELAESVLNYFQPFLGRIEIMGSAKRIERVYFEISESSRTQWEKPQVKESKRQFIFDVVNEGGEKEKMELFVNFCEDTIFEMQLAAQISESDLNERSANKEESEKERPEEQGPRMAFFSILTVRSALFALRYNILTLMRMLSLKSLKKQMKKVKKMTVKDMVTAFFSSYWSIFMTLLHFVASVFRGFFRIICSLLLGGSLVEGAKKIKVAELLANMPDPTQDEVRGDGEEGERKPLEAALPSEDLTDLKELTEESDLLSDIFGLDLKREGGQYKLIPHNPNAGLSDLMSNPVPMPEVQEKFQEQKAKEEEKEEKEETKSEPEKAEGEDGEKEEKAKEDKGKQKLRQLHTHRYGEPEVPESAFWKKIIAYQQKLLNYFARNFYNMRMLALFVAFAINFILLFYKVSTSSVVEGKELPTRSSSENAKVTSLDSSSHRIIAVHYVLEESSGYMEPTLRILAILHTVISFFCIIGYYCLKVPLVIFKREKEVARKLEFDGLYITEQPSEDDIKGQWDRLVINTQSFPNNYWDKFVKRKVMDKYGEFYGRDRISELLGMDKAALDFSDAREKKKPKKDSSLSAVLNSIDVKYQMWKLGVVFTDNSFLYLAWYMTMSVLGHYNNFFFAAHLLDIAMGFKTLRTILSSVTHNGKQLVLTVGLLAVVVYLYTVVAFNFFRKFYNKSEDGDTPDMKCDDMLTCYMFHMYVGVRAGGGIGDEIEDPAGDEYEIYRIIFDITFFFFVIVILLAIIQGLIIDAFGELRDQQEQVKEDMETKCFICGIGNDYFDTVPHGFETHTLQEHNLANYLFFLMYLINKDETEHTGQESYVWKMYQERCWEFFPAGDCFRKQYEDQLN

[10] = target: T1, Ryanodine receptor 2; assay: Activation of ryanodine receptor in human IMR32 cells assessed as induction of calcium mobilization at 100 uM; assay type: cell-based; details: IMR-32
[11] = Toxicity in po dosed rat; assay type: organism-based; details: in vivo
[12] = test system: Rattus norvegicus; assay: Toxicity in rat above 1000 mg/kg/day; assay type: organism-based; details: in vivo
[13] = test system: Oryctolagus cuniculus; assay: Toxicity in rabbit above 1000 mg/kg/day; assay type: organism-based; details: in vivo

| Structure (SMILES) | LC50 [1] | LC50 [2] | LC50 [3] | pEC50 [4] | further results |
| --- | --- | --- | --- | --- | --- |
| CNC(=O)c1cc(Cl)cc(C)c1NC(=O)c1cc(OC)nn1-c1ncccc1Cl | 0.68 µg/mL (≈ 1.57 µM) | 0.33 µg/mL (≈ 0.76 µM) | 2.43 µg/mL (≈ 5.6 µM) | 7.00 |  |
| CNC(=O)c1cc(Cl)cc(C)c1NC(=O)c1cc(Br)nn1-c1ncccc1Cl [CHLORANTRANILIPROLE] | 0.02 µg/mL (≈ 0.0414 µM) | 0.02 µg/mL (≈ 0.0414 µM) | 0.04 µg/mL (≈ 0.0828 µM) | 7.28 and 7.30 | pEC50 [5]: 7.40; pEC50 [6]: 4.85; pEC50 [7]: < 4.00; Activity [8]: 20%; pEC50 [9]: < 4.00; Activity [10]: inactive; LD50 [11]: > 5000 mg/kg; Activity [12]: Non-toxic; Activity [13]: Non-toxic |
| CNC(=O)c1cc(I)cc(C)c1NC(=O)c1cc(C(F)(F)F)nn1-c1ncccc1Cl | 0.26 µg/mL (≈ 0.461 µM) | 0.1 µg/mL (≈ 0.177 µM) | 0.21 µg/mL (≈ 0.373 µM) | 6.69 |  |
| Cc1cc(Cl)cc(C(=O)NC(C)C)c1NC(=O)c1cc(OCC(F)(F)F)nn1-c1ncccc1Cl | 0.03 µg/mL (≈ 0.0566 µM) | 0.01 µg/mL (≈ 0.0189 µM) | 0.09 µg/mL (≈ 0.17 µM) | 5.56 |  |
| CNC(=O)c1cc(Br)cc(C)c1NC(=O)c1cc(Br)nn1-c1ncccc1Cl | 0.18 µg/mL (≈ 0.341 µM) | 0.06 µg/mL (≈ 0.114 µM) | 0.11 µg/mL (≈ 0.208 µM) | 7.20 |  |
| COc1cc(C(=O)Nc2c(C)cc(Cl)cc2C(=O)NC(C)C)n(-c2ncccc2Cl)n1 | 0.3 µg/mL (≈ 0.649 µM) | 0.18 µg/mL (≈ 0.389 µM) | 1.14 µg/mL (≈ 2.47 µM) | 6.41 |  |
| Cc1cc(Cl)cc(C(=O)NC(C)C)c1NC(=O)c1cc(C(F)(F)F)nn1-c1ncccc1Cl | 0.03 µg/mL (≈ 0.06 µM) | 0.01 µg/mL (≈ 0.02 µM) | 0.02 µg/mL (≈ 0.04 µM) | 5.74 |  |
| CNC(=O)c1cc(Cl)cc(C)c1NC(=O)c1cc(OC(F)F)nn1-c1ncccc1Cl | 0.21 µg/mL (≈ 0.447 µM) | 0.38 µg/mL (≈ 0.808 µM) | 1.08 µg/mL (≈ 2.3 µM) | 7.22 |  |
| CNC(=O)c1cc(Cl)cc(C)c1NC(=O)c1cc(C(F)(F)F)nn1-c1ncccc1Cl | 0.02 µg/mL (≈ 0.0424 µM) | 0.01 µg/mL (≈ 0.0212 µM) | 0.05 µg/mL (≈ 0.106 µM) | 7.14 |  |
| CNC(=O)c1cc(I)cc(C)c1NC(=O)c1cc(Br)nn1-c1ncccc1Cl | 0.13 µg/mL (≈ 0.226 µM) | 0.07 µg/mL (≈ 0.122 µM) | 0.16 µg/mL (≈ 0.278 µM) | 6.93 |  |
| Cc1cc(Cl)cc(C(=O)NC(C)C)c1NC(=O)c1cc(Cl)nn1-c1ncccc1Cl | 0.05 µg/mL (≈ 0.107 µM) | 0.09 µg/mL (≈ 0.193 µM) | 0.05 µg/mL (≈ 0.107 µM) | 6.57 |  |
| CNC(=O)c1cc(Cl)cc(C)c1NC(=O)c1cc(OCC(F)(F)F)nn1-c1ncccc1Cl | 0.11 µg/mL (≈ 0.219 µM) | 0.04 µg/mL (≈ 0.0796 µM) | 0.24 µg/mL (≈ 0.478 µM) | 6.62 |  |
| Cc1cc(Cl)cc(C(=O)NC(C)C)c1NC(=O)c1cc(OC(F)F)nn1-c1ncccc1Cl | 0.14 µg/mL (≈ 0.281 µM) | 0.1 µg/mL (≈ 0.201 µM) | 0.12 µg/mL (≈ 0.241 µM) | 6.29 |  |
| Cn1c(=O)c2c(ncn2C)n(C)c1=O |  |  |  |  | Activity ([9]; IMR-32): Dose-dependent effect |
| Cc1cc(Cl)cc(C(=O)NC(C)C)c1NC(=O)c1cc(Br)nn1-c1ncccc1Cl | 0.04 µg/mL (≈ 0.0782 µM) | 0.04 µg/mL (≈ 0.0782 µM) | 0.02 µg/mL (≈ 0.0391 µM) | 6.34 |  |
| CNC(=O)c1cc(Cl)cc(C)c1NC(=O)c1cc(Cl)nn1-c1ncccc1Cl | 0.03 µg/mL (≈ 0.0684 µM) | 0.03 µg/mL (≈ 0.0684 µM) | 0.07 µg/mL (≈ 0.16 µM) | 7.16 |  |
| Cc1cc(C(F)(F)F)cc(C(=O)NC(C)C)c1NC(=O)c1cc(C(F)(F)F)nn1-c1ncccc1Cl | 0.39 µg/mL (≈ 0.731 µM) | 0.07 µg/mL (≈ 0.131 µM) | 0.11 µg/mL (≈ 0.206 µM) | 5.43 |  |
| CNC(=O)c1cc(C(F)(F)F)cc(C)c1NC(=O)c1cc(C(F)(F)F)nn1-c1ncccc1Cl | 0.53 µg/mL (≈ 1.05 µM) | 0.09 µg/mL (≈ 0.178 µM) | 0.66 µg/mL (≈ 1.3 µM) |  |  |
| Cc1cc(Br)cc(C(=O)NC(C)C)c1NC(=O)c1cc(C(F)(F)F)nn1-c1ncccc1Cl | 0.03 µg/mL (≈ 0.0551 µM) | 0.01 µg/mL (≈ 0.0184 µM) | 0.03 µg/mL (≈ 0.0551 µM) | 5.80 |  |
